System: E. coli DEB31
Assay: Antibiotics susceptibility of biofilm-grown cells, plate counting (modified Whiteley method)
Format: cell-based, Escherichia coli
Conditions: for antibiotic concentration at which the number of living E. coli DEB31 equals that of wild-type MG1655 at the standard concentration: 24 h biofilm, then 10 h antibiotic at 30° C., MG1655 standard concentration: ampicillin 50, streptomycin 30, rifampicin 150 μg/ml
Procedure: The antibiotics susceptibility of the variants was measured using the modified technique developed by Whiteley (Whiteley M., Nature, 413, 860, 2001). In other words, 96-well polystyrene plates containing 0.2 ml of LB culture were inoculated with the variants to be incubated for 24 hours to allow biofilm formation. Each well was added with various concentrations of antibiotics ranging from 0.25 μg to 64 μg and were incubated for 10 hours. The number of living cells was measured by plate counting method.
After incubating the variants in 96-well plates containing 200 μl of LB medium for 24 hours, the serial diluted antibiotics was added to each well at the following concentration ranges: ampicillin, from 0 to 128 μg/ml; streptomycin, from 0 to 64 μg/ml; and rifampicin, from 0 to 256 μg/ml. The cells were incubated for additional 10 hours at 30° C. after antibiotics addition. Then, the number of the living E. coli variants was counted using the standard plate counting method.

## CC1(C)S[C@@H]2[C@H](NC(=O)[C@H](N)c3ccccc3)C(=O)N2[C@H]1C(=O)O [ampicillin]
  antibiotic concentration at which the number of living E. coli DEB31 equals that of wild-type MG1655 at the standard concentration: 2 µg/mL

## CO[C@H]1/C=C/O[C@@]2(C)Oc3c(C)c(O)c4c(O)c(c(/C=N/N5CCN(C)CC5)c(O)c4c3C2=O)NC(=O)/C(C)=C\C=C\[C@H](C)[C@H](O)[C@@H](C)[C@@H](O)[C@@H](C)[C@H](OC(C)=O)[C@@H]1C [rifampicin]
  antibiotic concentration at which the number of living E. coli DEB31 equals that of wild-type MG1655 at the standard concentration: 32 µg/mL
DEB31 / biofilm-deficient variants vs MG1655
  increase of antibiotics susceptibility versus wild-type MG1655: about 5 fold

## [H]/N=C(/N)N[C@H]1[C@H](O)[C@@H](O)[C@H](O[C@@H]2O[C@@H](C)[C@](O)(C=O)[C@H]2O[C@@H]2O[C@@H](CO)[C@H](O)[C@@H](O)[C@@H]2NC)[C@@H](N/C(N)=N\[H])[C@@H]1O [streptomycin]
  antibiotic concentration at which the number of living E. coli DEB31 equals that of wild-type MG1655 at the standard concentration: 8 µg/mL
